US6500819B2, “Bicyclolactam compounds, use thereof and intermediates for preparing thereof” (Taiho Pharmaceutical Company Limited, priority 1994, dated 2002)

Key:
ddY mice [1] = assay: Sedative effect (spontaneous locomotor activity), second part
Experimental: Sedative Effect (Spontaneous locomotor activity)
(§1) Compound 1′a-1, the comparison compound, diazepam or buspirone was suspended in a 0.5% sodium carboxymethyl cellulose solution, and the suspension was orally administered to 3- to 4-week-old male ddY mice (in groups of 5) in a volume of 10 ml/kg one hour before the start of experiment.
The test was conducted with reference to a method described in “Evaluation of Medicinal Efficacies (1), Pharmacological Test Method (I), Basic Lectures on Development of Pharmaceuticals,” 50˜54(1971). More specifically, the group of mice were given the test drug and thereafter measured the amount of spontaneous locomotor activity for 10 minutes per mouse using Animex MK-110 (Muromachi Kikai Co., Ltd.).

ddY mice [2] = assay: Anticonvulsant effect (pentylenetetrazol-induced convulsion method), second part; type: in vivo; details: for ED50: Mus musculus, 1 h, read-out: ED50, anticonvulsant effect (no death within 60 minutes)
Experimental: Anticonvulsant Effect (Pentylenetetrazol-induced Convulsion Method)
Compound 1′a-1, the comparison compound, diazepam or j buspirone was suspended, in a 0.5% sodium carboxymethyl cellulose solution, and the suspension was orally administered to 3- to 4-week-old maple ddY mice (in groups of 6) in a volume of 10 ml/kg one hour before the start of experiment.
The test was conducted with reference to a method described in “Evaluation of Medicinal Efficacies (1), Pharmacological Test Method (I), Basic Lectures on Development of Pharmaceuticals,” 167˜172(1971).

ddY mice [3] = assay: Effect on central nervous system depressant (ethanol enhancing method), second part; details: oral, dose of 300 mg/kg
Experimental: (§2) Effect on central nervous system depressant (Ethanol enhancing method)
(§3) Compound 1′a-1, the comparison compound, diazepam or buspirone was suspended in a 0.5% sodium carboxymethyl cellulose solution, and the suspension was orally administered to 3- to 4-week-old male ddY mice (in groups of 6) in a volume of 10 ml/kg one hour before the start of experiment.
(§4) The test was conducted with reference to a method described in Japan. J. Pharmacol., 49, 337˜349(1989). More specifically, the group of mice were intraperitoneally given 25% ethanol at a dose of 20 ml/kg and checked for the time interval between loss and recovery of the righting reflex.

ddY mice [4] = assay: Muscle relaxant effect (traction method), second part; details: oral, dose of 300 mg/kg
Experimental: (§5) Muscle Relaxant Effect (Traction Method)
as §1
(§6) With reference to a method described in Japan. J. Pharmacol., 49. 337˜349(1989), the foreleg of the mouse was hung on a horizontal wire, having a diameter of 1.2 mm and fixed at a level of 30 cm, three times consecutively. […] Thus, ED5 0 was determined for evaluation. […] Diazepam and buspirone were 2.2 mg/kg and 427.8 mg/kg, respectively, in ED5 0.

Wistar rats [5] = assay: Anticonflict test (first part, Test Example 1); type: in vivo; details: for Frequency of water drinking behavior: dose 1.0 mg/kg oral, 1 h before test, value relative to control = 100; for Anxiolytic effect in the anticonflict test (in words): oral, compounds at doses of 0.001 to 1.0 mg/kg
Experimental: (§7) Wistar rats (males weighing 140 to 160 g) were used for experiment in groups of 11 to 14.
The test compound, diazepam or buspirone was suspended in a 0.5 % sodiumn carboxymethyl cellulose solution, and the suspension was orally given to the animal in a volume of 5 mnl/kg one hour before the start of experiment.
With reference to a method described in “Process in Anxiolytics and Antidepresants,” ediled by Showa Ueki and Tatsuo Furukawa, Ishiyaku Shuppansha, 56-59 (1981) , the agents were tested using experimental boxes having a grid floor and a metal drinking tube in the floor. No water was supplied to the rats for 48 hours before the experiment. Upon lapse of first 24 hours, each group of rats were placed into the experimental box, permitted access to water for 30 seconds and caused to recognize the metal drinking tube. Upon lapse of further 24 hours with access to water prevented, the rats were placed into the box again and permitted access to water on condition that an electric current was passed between the metal drinking tube and the grid to give an electroshock for every 20 times of water drinking behavior to measure the frequency of water drinking behavior for 3 minutes.
The frequency is expessed by a value relative to the frequency of the control which is taken as 100.

Wistar rats [6] = assay: Anticonflict test (second part, relieving rate of anxiety); type: in vivo; details: oral, dose of 1.0 mg/kg
Experimental: as §7
No water was supplied to the rats for 48 hours before the experiment. Upon lapse of first 24 hours, each group of rats were placed into the experimental box, permitted access to water for 30 seconds and caused to recognize the metal drinking tube. Upon lapse of further 24 hours with access to water prevented, the rats were placed into the box again and permitted access to water on condition that an electric current was passed between the metal drinking tube and the grid to give an electroshock for every 20 times of water drinking behavior to measure the frequency of water drinking behavior for 3 minutes. Anxiolytic effect was evaluated as relieving rate of anxiety as calculated by the following equation.

Wistar rats [7] = assay: Elevated plus maze test; type: in vivo; details: 1 h before test, relative to control = 100
Experimental: Wistar rats (males weighing 170 to 220 g) were used for experiment in groups of 4 to 9.
The test compound, diazepam or buspirone was suspended in a 0.5 %) sodium carboxymethyl cellulose solution, and the suspension was orally given to the animal in a volume of 5 ml/kg one hour before the start of experiment.
The test was conducted using an experimental device, Model BTA-2, Behavior Analysis System (product of Muromachi Kikai Co., Ltd.) with reference to a method described in Psychopharmacology, 99, 48˜53(1989). […] Each group of rats orally given the test drug were placed in the center square, and the behavior of the animals was recorded for 5 minutes using a behavior analyzer. The ratio of the number of entries into the open arm to the number of entries into all the arms was determined for evaluating the anxiolytic effect.
The ratio of entries into the open arm is expressed by a value relative to the ratio attained by the control which is taken as 100.

[8] = Muscle relaxant effect (traction method), first part; details: male, ddY, mouse, in vivo, po
Experimental: as §5
(§8) Compound 3, Compound 13, diazepam or buspirone was suspended in a 0.5 % sodium carboxymethyl cellulose solution, and the suspension was orally administered to 3- to 4-week-old male ddY mice (in groups of 5) in a volume of 10 ml/kg one hour before the start of experiment.
as §6

[9] = Effect on central nervous system depressant: pentobarbital anesthetic method; details: male, ddY, mouse, in vivo
Experimental: (§9) Effect On Central Nervous System Depressant
a. Pentobarbital Anesthetic Method
Compound 3, Compound 13, diazepam or buspirone was suspended in a 0.5 % sodium carboxymethyl cellulose solution, and the suspension was orally administered to 3- to 4-week-old male ddY mice (in groups of 5 to 10) in a volume of 10 ml/kg one hour before the start of experiment.
The test was conducted with reference to a method described in “Evaluation of Medicinal Efficacies (1), Pharmacological Test Method (1), Basic lectures on Development of Pharmaceuticals,” 144˜145(1971). More specifically, the group of mice were intraperitoneally given pentobarbital at a dose of 40 mg/kg and checked for sleeping time.

[10] = Effect on central nervous system depressant: ethanol enhancing method, first part; details: male, ddY, mouse, in vivo
Experimental: as §9
b. Ethanol Enhancing Method
Compound 3, Compound 13, diazepam or buspirone was suspended in a 0.5 % sodium carboxymethyl cellulose solution, and the suspension was orally administered to 3- to 4-week-old male ddY mice (in groups of 6) in a volume of 10 ml/kg one hour before the start of experiment.
The test was conducted with reference to a method described in Japan. J. Pharmacol., 49, 337˜349(1989). More specifically, the group of mice were intraperitoneally given 25 % ethanol at a dose of 20 ml/kg and checked for the time interval between loss and recovery of the righting reflex.

[11] = Effect on central nervous system depressant (ethanol enhancing method), second part; details: male, ddY, mouse, in vivo
Experimental: as §2, §3, §4

[12] = Muscle relaxant effect (traction method), second part; details: male, ddY, mouse, in vivo, po
Experimental: as §5, §1, §6

[13] = Sedative effect (spontaneous locomotor activity), first part; details: male, ddY, mouse, in vivo, po
Experimental: Sedative Effect (Spontaneous Locomotor Activity)
as §8
The test was conducted with reference to a method described in “Evaluation of Medicinal Efficacies (1), Pharmacological Test Method (1), Basic Lectures on Development of Pharmaceuticals,” 50˜54(1971). More specifically, the group of mice were given the test drug and thereafter measured the amount of spontaneous locomotor activity for 10 minutes per mouse rising Animex MK-110 (product of Muromachi Kikai Co., Ltd.).

[14] = Acute toxicity test (LD50), first part; type: in vivo; details: mouse, in vivo; oral, male ddY mice, observed for 3 days

SMILES	Sedative effect (in words) (ddY mice [1]; oral, dose of 300 mg/kg)	Anticonvulsant effect (in words) (ddY mice [2]; oral, dose of 300 mg/kg)	Ethanol enhancing effect (in words) (ddY mice [3])	Muscle relaxant effect (in words) (ddY mice [4])	Frequency of water drinking behavior (Wistar rats [5]) [%]	Anxiolytic effect in the anticonflict test (in words) (Wistar rats [5])	ED6O, sedative effect (spontaneous locomotor activity up to 50% of control) (ddY mice [1]; male, ddY, mouse, in vivo, po, 1 h) [mg/kg]	Anxiolytic effect in the anticonflict test (in words) (Wistar rats [6])	ED50 (ddY mice [2]) [mg/kg]	Ratio of entries into open arm (Wistar rats [7]; dose 1.0 oral)	Ratio of entries into open arm (Wistar rats [7]; dose 10.0 oral)	ED50 at 1 h [8] [mg/kg]	ED50 at 1 h [9] [mg/kg]	ED6O, sedative effect (spontaneous locomotor activity up to 50% of control) (ddY mice [1]; oral, mice, 1 h before test) [mg/kg]	ED50 at 1 h [10] [mg/kg]	ED50 at 1 h [11] [mg/kg]	ED50 at 1 h [12] [mg/kg]	ED50 at 1 h [13] [mg/kg]	LD50 at 3 days [14] [mg/kg]
O=C1CC2CCCCC2N1 (stereo not drawn) [Comparison Compound, 2-azabicyclo[3.4.0]nonane-2-one]	no sedative effect	no anticonvulsant effect	no ethanol enhancing effect	no muscle relaxant effect															
O=C1CC2(CCCC2)CC(=O)N1CCCCN1CCN(c2ncccn2)CC1 [Buspirone, buspirone, reference compound]					103	almost ineffective	149.7	almost ineffective	≥ 300	98	93								
CN1C(=O)CN=C(c2ccccc2)c2cc(Cl)ccc21 [Diazepam, diazepam, reference compound]					96	almost ineffective		almost ineffective	0.35	103	144	2.2	0.53	1.7	0.48	0.48	2.2	1.7	
COc1ccc(C(=O)N2C(=O)CC3CCCCC32)cc1 (stereo not drawn) [Compound 11, 7-(4-methoxybenzoyl)-7-azabicyclo[4.3.0]nonane-8-one]					133	increase in the frequency of water drinking behavior													> 2000
